The text below walks through data of patent US20220033397A1, “PHARMACEUTICAL COMPOUNDS AND THEIR USE AS INHIBITORS OF UBIQUITIN SPECIFIC PROTEASE 19 (USP19)” (ALMAC DISCOVERY LIMITED, priority 2018, published 2022).

SMILES strings stand for the structures. pIC50: −log10 of the molar value.

The target in the assay is T1, Full-length USP19 (Homo sapiens, UniProt O94966).
T1 construct: Full-length USP19 was purchased from Boston Biochem (E-576); purchased Boston Biochem E-576
T1 sequence (O94966 1-1318): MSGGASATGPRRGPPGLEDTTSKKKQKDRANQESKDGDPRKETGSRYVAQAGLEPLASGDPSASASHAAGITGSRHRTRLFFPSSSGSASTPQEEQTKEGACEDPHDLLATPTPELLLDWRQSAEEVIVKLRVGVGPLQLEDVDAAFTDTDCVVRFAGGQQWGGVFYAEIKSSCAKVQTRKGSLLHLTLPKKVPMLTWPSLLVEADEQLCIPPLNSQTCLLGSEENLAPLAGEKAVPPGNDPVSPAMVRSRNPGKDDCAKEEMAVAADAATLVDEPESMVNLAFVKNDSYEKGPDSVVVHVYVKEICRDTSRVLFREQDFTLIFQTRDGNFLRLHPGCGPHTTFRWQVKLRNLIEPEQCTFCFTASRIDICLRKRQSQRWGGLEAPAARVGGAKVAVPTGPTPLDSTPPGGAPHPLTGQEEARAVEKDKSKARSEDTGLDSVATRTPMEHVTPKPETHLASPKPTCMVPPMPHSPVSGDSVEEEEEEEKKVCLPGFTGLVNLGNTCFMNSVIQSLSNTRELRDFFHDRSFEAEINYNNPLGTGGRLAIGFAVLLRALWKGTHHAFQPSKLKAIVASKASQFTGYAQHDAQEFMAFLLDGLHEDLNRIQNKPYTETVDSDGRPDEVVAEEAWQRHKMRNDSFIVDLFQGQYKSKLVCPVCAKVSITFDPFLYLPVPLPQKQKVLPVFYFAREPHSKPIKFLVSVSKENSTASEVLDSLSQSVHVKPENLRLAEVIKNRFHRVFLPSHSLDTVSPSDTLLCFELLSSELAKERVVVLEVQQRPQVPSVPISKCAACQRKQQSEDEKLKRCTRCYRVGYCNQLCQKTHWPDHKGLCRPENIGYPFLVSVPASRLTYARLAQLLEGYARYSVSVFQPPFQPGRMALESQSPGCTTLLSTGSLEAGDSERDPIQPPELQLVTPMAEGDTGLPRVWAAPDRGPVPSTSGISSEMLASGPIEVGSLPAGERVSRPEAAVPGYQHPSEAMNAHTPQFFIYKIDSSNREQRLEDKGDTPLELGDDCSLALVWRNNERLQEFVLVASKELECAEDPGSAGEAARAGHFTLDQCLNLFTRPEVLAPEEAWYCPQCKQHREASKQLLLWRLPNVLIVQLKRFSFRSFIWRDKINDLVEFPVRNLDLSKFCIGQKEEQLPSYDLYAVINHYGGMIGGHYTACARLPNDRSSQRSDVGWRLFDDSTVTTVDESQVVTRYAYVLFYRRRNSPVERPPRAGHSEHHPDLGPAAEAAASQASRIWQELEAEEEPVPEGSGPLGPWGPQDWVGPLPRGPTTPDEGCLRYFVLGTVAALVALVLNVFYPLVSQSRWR
Description: USP19 fluorescence polarisation (FP) homogeneous assay with Ubiquitin-Lys-TAMRA substrate. Type of assay: biochemical. Particulars: 2.5 nM USP19, 30 min pre-incubation, average of at least two duplicate experiments. Put shortly: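 Full-length USP19 preincubated 30 min at RT with inhibitor (200 μM to 2 μM series, 8–18 points) before adding 500 nM Ubiquitin-Lys-TAMRA substrate.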
(In general: In fluorescence polarisation assays a small probe gives low polarisation when free and higher when bound to something large.)
As a reminder, the pIC50 is the IC50 on a negative log10 scale, so that one unit is a factor of ten. On to `CSc1ncc2c(=O)n(CC3(O)CCN(C(=O)[C@H](C)CC4CCCCC4)CC34CCCC4)cnc2n1` (stereo partly drawn) [Example 160, 3-((7-((R)-3-Cyclohexyl-2-methylpropanoyl)-10-hydroxy-7-azaspiro[4.5]decan-10-yl)methyl)-7-(methylthio)pyrimido[4,5-d]pyrimidin-4(3H)-one], for which the pIC50 is above 6.30.

As to `CS(=N)(=O)c1cn(CC2(O)CCN(C(=O)N3CCOC[C@H]3c3ccccc3)CC23CCCC3)c(=O)cc1-c1ccccc1` (stereo partly drawn) [Example 190, 1-((10-Hydroxy-7-((R)-3-phenylmorpholine-4-carbonyl)-7-azaspiro[4.5]decan-10-yl)methyl)-5-(S-methylsulfonimidoyl)-4-phenylpyridin-2(1H)-one], the negative-log IC50 (pIC50) was above 6.30. Turning to `CC1(CNC(=O)N2CCC(O)(Cn3cnc(-c4ccccc4)cc3=O)C3(CCCC3)C2)CC1` (stereo not drawn) [Example 256, 10-Hydroxy-N-((1-methylcyclopropyl)methyl)-10-((6-oxo-4-phenylpyrimidin-1(6H)-yl)methyl)-7-azaspiro[4.5]decane-7-carboxamide], the negative logarithm of the IC50 (pIC50) was 4.30 to 5.30. For `O=C(N1CCC(O)(Cn2cnc(-c3ccccc3)cc2=O)C2(CCCC2)C1)N1CCC[C@H]1Cc1cccs1` (stereo partly drawn) [Example 267, 3-((10-Hydroxy-7-((S)-2-(thiophen-2-ylmethyl)pyrrolidine-1-carbonyl)-7-azaspiro[4.5]decan-10-yl)methyl)-6-phenylpyrimidin-4(3H)-one] the value was 3.60 to 4.30. Next, `C[C@H](CC(F)(F)F)C(=O)N1CCC(O)(Cn2cnc3c(cnn3C3CC3)c2=O)C2(CCCC2)C1` (stereo partly drawn) [Example 181, 1-Cyclopropyl-5-((10-hydroxy-7-((R)-4,4,4-trifluoro-2-methylbutanoyl)-7-azaspiro[4.5]decan-10-yl)methyl)-1,5-dihydro-4H-pyrazolo[3,4-d]pyrimidin-4-one]: 4.30 to 5.30; `C[C@H](CC1CCCCC1)C(=O)N1CCC(O)(Cn2cnc3ccncc3c2=O)C2(CCCC2)C1` (stereo partly drawn) [Example 157, 3-((7-((R)-3-Cyclohexyl-2-methylpropanoyl)-10-hydroxy-7-azaspiro[4.5]decan-10-yl)methyl)pyrido[4,3-d]pyrimidin-4(3H)-one]: 5.30 to 6.30; `C[C@H](CC(F)(F)F)C(=O)N1CCC(O)(CN2CCOCC2=O)C2(CCCC2)C1` (stereo partly drawn) [Example 32, 4-((10-Hydroxy-7-((R)-4,4,4-trifluoro-2-methylbutanoyl)-7-azaspiro[4.5]decan-10-yl)methyl)morpholin-3-one]: 3.60 to 4.30. Next, `O=C(NCc1ccccc1)N1CCC(O)(Cn2cnc(Cl)cc2=O)C2(CCCC2)C1` (stereo not drawn) [Example 198, N-Benzyl-10-((4-chloro-6-oxopyrimidin-1(6H)-yl)methyl)-10-hydroxy-7-azaspiro[4.5]decane-7-carboxamide]: 3.60 to 4.30. For the compound `N#Cc1cccc(CNC(=O)N2CCC(O)(Cn3cnc(-c4ccccc4)cc3=O)C3(CCCC3)C2)c1` (stereo not drawn) [Example 257, N-(3-Cyanobenzyl)-10-hydroxy-10-((6-oxo-4-phenylpyrimidin-1(6H)-yl)methyl)-7-azaspiro[4.5]decane-7-carboxamide], the pIC50 is 4.30 to 5.30.

For `Cc1nccn(CC2(O)CCN(C(=O)N3CCNC[C@H]3c3ccccc3)CC23CCCC3)c1=O` (stereo partly drawn) [Example 93, 1-((10-Hydroxy-7-((R)-2-phenylpiperazine-1-carbonyl)-7-azaspiro[4.5]decan-10-yl)methyl)-3-methylpyrazin-2(1H)-one], the negative logarithm of the IC50 (pIC50) was 4.30 to 5.30. Next, `CC(CC1CCCCC1)C(=O)N1CCC(O)(CN2C(=O)c3ccccc3C2=O)C(C)(C)C1` (stereo not drawn) [Example 42, 2-((1-(3-Cyclohexyl-2-methylpropanoyl)-4-hydroxy-3,3-dimethylpiperidin-4-yl)methyl)isoindoline-1,3-dione]: 3.60 to 4.30; `Cn1nccc1-c1cc(=O)n(C[C@]2(O)CCN(C(=O)N3CCOC[C@H]3c3ccc(F)cc3)CC23CCCC3)cn1` [Example 284, 3-(((S)-7-((R)-3-(4-Fluorophenyl)morpholine-4-carbonyl)-10-hydroxy-7-azaspiro[4.5]decan-10-yl)methyl)-6-(1-methyl-1H-pyrazol-5-yl)pyrimidin-4(3H)-one]: above 6.30.
